Assay [1] concerns the target T1, Gal4 DNA binding domain fused to the LBD of LXRα in HEK293 cells (Homo sapiens (Human), UniProt Q13133). As to the kind of experiment: LXR luciferase transcriptional reporter gene assay, antagonist mode (200 nM T0901317), LXRα. Format: cell-based. The following applies: for IC50: read-out: Cell LXRα IC50. For orientation: A reporter such as luciferase makes a cellular process visible.

Another assay addresses LXR α LBD protein (Homo sapiens (Human), UniProt Q13133). Put plainly: Human LXRα coactivator recruitment FRET assay, agonist mode. Format: biochemical. The following applies: agonist mode. A digest of the protocol:
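Time-resolved FRET (delay 100 µs, window 200 µs) after 2 h rt incubation of compound with 10 nM (2×) GST-tagged LXRα or LXRβ LBD plus 200 nM fluorescein-SRC2-3 and 20 nM Tb-anti-GST (4×). Percent control vs concentration fit to four-parameter model; EC50 at inflection.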

The target of assay [2] is T1, Gal4 DNA binding domain fused to the LBD of LXRα in HEK293 cells. Put plainly: LXR luciferase transcriptional reporter gene assay, agonist mode, LXRα. Format: cell-based. The following applies: for EC50: read-out: Cell LXRα EC50.
Where [3] appears, read: antagonist mode, 200 nM T0901317, HEK293 reporter gene assay.

Structures are written as SMILES. Like-named read-outs stand apart in the source and are kept apart here. Bounds are passed on as bounds.

By IC50 is commonly meant the concentration that gives 50% inhibition. The EC50 is the concentration needed to bring the measured effect to its halfway point.

T1 sequence (Q13133 209-447): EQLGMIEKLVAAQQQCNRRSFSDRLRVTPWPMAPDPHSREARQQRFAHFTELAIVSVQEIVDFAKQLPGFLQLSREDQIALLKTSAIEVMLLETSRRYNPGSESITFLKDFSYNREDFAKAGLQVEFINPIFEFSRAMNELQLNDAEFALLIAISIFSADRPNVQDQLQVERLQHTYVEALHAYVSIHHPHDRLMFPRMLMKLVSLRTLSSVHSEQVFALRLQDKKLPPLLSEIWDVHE
LXR α LBD protein, sequence (Q13133 209-447): as above

`CS(=O)(=O)c1cccc(N2CCN(Cc3ccc(C(F)(F)F)c(Cl)c3)C(C3CCCCC3)C2)c1` (stereo not drawn) [46-27, 1-(3-chloro-4-(trifluoromethyl)benzyl)-2-cyclohexyl-4-(3-(methylsulfonyl)phenyl)piperazine]: the concentration for half-maximal inhibition (IC50) in assay [1] (setting [3]) is above 10 µM. Besides, the EC50 worked out at 0.157 µM on LXR α LBD protein and 1.1 µM in assay [2] (agonist mode). Further, the “FRET LXRα efficacy” value on LXR α LBD protein is on record as 79%. In assay [2], the “Cell LXRα efficacy” value is 1100 (77) %.
For the compound `CC(C)[C@@H]1CN(c2cccc(S(C)(=O)=O)c2)CCN1c1ccc(C(F)(F)F)cn1` [Cpd No 7-35, (R)-2-isopropyl-4-(3-(methylsulfonyl)phenyl)-1-(5-(trifluoromethyl)pyridin-2-yl)piperazine], the IC50 in assay [1] (setting [3]) is above 10 µM. Also, on LXR α LBD protein, the midpoint of the response, the EC50, lay at 0.013 µM and the “FRET LXRα efficacy” value is listed as 79%. In addition, the “Cell LXRα efficacy” value in assay [2] is recorded as 138 (97) %. In assay [2] (agonist mode), the concentration for a half-maximal effect (EC50) amounted to 0.138 µM.
For the compound `CC(C)[C@@H]1CN(c2cccc(S(C)(=O)=O)c2)CCN1c1ncccn1` [7-2, (R)-2-(2-isopropyl-4-(3-(methylsulfonyl)phenyl)piperazin-1-yl)pyrimidine], the IC50 in assay [1] (setting [3]) is 5.5 µM. On LXR α LBD protein, the EC50 was 1.03 µM and the “FRET LXRα efficacy” value was determined as 23%. In addition, the concentration giving a half-maximal response (EC50) in assay [2] (agonist mode) is above 20 µM.
In the case of `CS(=O)(=O)c1cccc(N2CCN(CC3CCC(O)(C(F)(F)F)CC3)[C@@H](c3ccccc3)C2)c1` (stereo partly drawn) [Cpd No 48-1, (S)-4-((4-(3-(methylsulfonyl)phenyl)-2-phenylpiperazin-1-yl)methyl)-1-(trifluoromethyl)cyclohexan-1-ol], in assay [1], the “Cell LXRα efficacy” value is 3946 (105) % and the IC50 stood at 3.95 µM. Also, at LXR α LBD protein, a half-maximal effect (EC50) was put at 1.52 µM and the “FRET LXRα efficacy” value is recorded as 19%. In assay [2], the “Cell LXRα efficacy” value is 760 (31) % and the EC50 worked out at 0.76 µM.
For the compound `CC(C)(C)OC(=O)N1CCN(c2cccc(S(C)(=O)=O)c2)C[C@H]1Cc1ccccc1` [1-8, tert-butyl (R)-2-benzyl-4-(3-(methylsulfonyl)phenyl)piperazine-1-carboxylate], in assay [1] (setting [3]), the IC50 is 4.71 µM. In addition, at LXR α LBD protein, a half-maximal effect (EC50) was put at 0.105 µM and the “FRET LXRα efficacy” value was 18%. Further, in assay [2], the “Cell LXRα efficacy” value is 1146 (34) %. The EC50 in assay [2] (agonist mode) amounted to 1.15 µM.
For `CC(C)[C@@H]1CN(c2cccc(S(C)(=O)=O)c2)CCN1C(=O)OCC(C)(C)C` [5-6, neopentyl (R)-2-isopropyl-4-(3-(methylsulfonyl)phenyl)piperazine-1-carboxylate], in that order: 9.46 µM, 0.234 µM, 52%, 1424 (48) % and 1.42 µM.
For `CC(C)COC(=O)N1CCN(c2cccc(S(C)(=O)=O)c2)C[C@H]1C(C)C` [5-7, isobutyl (R)-2-isopropyl-4-(3-(methylsulfonyl)phenyl)piperazine-1-carboxylate], in that order: 5.12 µM, 0.34 µM, 58%, 1919 (44) % and 1.92 µM.
For `CC(C)[C@@H]1CN(c2cccc(S(C)(=O)=O)c2)CCN1c1ncc(Cl)cn1` [Cpd No 7-4, (R)-5-chloro-2-(2-isopropyl-4-(3-(methylsulfonyl)phenyl)piperazin-1-yl)pyrimidine], in that order: above 10 µM, 0.281 µM, 76%, 1219 (70) % and 1.22 µM.
For `CC(C)C[C@@H]1CN(c2cccc(S(C)(=O)=O)c2)CCN1C(=O)OC(C)(C)C` [1-3, tert-butyl (R)-2-isobutyl-4-(3-(methylsulfonyl)phenyl)piperazine-1-carboxylate], the IC50 in assay [1] (setting [3]) worked out at 2.87 µM. Further, at LXR α LBD protein, the EC50 turned out to be 1.68 µM and the “FRET LXRα efficacy” value was 43%. In assay [2], the “Cell LXRα efficacy” value is 955 (34) %. Besides, the EC50 in assay [2] (agonist mode) was found to be 0.955 µM.

The values are drawn from US10144715B2, “Piperazine derivatives as liver X receptor modulators” (priority 2014, dated 2018).
